# Source: EP0209363B1, “Heteropeptides, intermediates in the biosynthesis of penicillins” (Antibioticos, S.A., priority 1985, dated 1987)
# Where a SMILES comes first, the peptide text is derived from it. [ ]: non-standard residue; d: D form. The star is where a group is joined. PhAc = O=C(Cc1ccccc1)*
# How the values were obtained:
# [1] = target: T1, isopenicillin N synthetase (cyclase) (Penicillium chrysogenum, UniProt P08703); experiment: Cyclization of peptide substrates by P. chrysogenum cyclase, penicillin formed measured by bioassay; assay type: biochemical
# T1 construct: The mycelium was disrupted by sonification for 5 minutes; endogenous in cells
# T1 sequence (P08703 1-331): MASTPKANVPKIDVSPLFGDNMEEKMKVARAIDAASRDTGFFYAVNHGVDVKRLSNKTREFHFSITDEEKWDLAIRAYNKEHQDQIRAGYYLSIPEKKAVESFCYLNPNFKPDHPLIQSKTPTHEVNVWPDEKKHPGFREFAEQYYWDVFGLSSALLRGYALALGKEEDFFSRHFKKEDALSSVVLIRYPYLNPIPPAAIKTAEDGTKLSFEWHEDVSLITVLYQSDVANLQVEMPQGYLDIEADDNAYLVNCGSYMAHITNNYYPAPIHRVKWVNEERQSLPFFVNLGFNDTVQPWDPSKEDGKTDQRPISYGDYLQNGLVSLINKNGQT
# Protocol: Example 2 was repeated but using isopenicillin N synthetase extracted from a high producing strain of Penicillium chrysogenum (Penicillium chrysogenum AS-P-78, Luengo et al J. Antibiot. 144:869-876). Cells containing high isopenicillin N synthetase activity were obtained in a two stage process as described in J. Antibiot. 144:869-876. Cell free extracts were obtained as described by Ramos et al in Antimicrob. Agents Chemother. 27(3):380-387. Mycelium of P. chrysogenum was collected at 24 hours of cultivation in cephalosporin production medium (CP medium) and resuspended in 30mM Tris-HCl buffer pH 8.0 containing 0.1mM dithiothreitol (DTT). The mycelium was disrupted by sonification for 5 minutes. The extract was centrifuged at 100,000 x g for 1 hour at 4°C in a Beckman L8-70 ultracentrifuge and the resulting crude extract was stored at -20°C. Isopenicillin N synthetase were purified as previously described in Antimicrob. Agents Chemother. 27(3):380-387. The isopenicillin N and benzylpenicillin formed by cyclization of 0.2mM ACV or 2mM PCV using […] was assayed by the following bioassay. After the reactions were stopped with methanol, triplicate 50 µl samples were applied to wells 7mm in diameter in plates containing 15ml of Tryptic Soy Agar (TSA) medium (Difco) innoculated with Micrococcus luteus (0.5 ml of a culture having an O.D. of 1.0 at 600nm). Control samples of pure isopenicillin N or benzylpenicillin were treated with methanol in a similar way to the reaction samples. The samples in the assay plates were kept at 4°C for 3 hours to allow diffusion and then incubated at 30°C for 12 hours. The cell free extracts of P. chrysogenum AS-P-78 (5-20 mg of protein/ml) were incubated at 25°C for 30 minutes in a reaction mixture containing 30mM Tris-HCl buffer pH 8.1, 0.1mM FeSO₄, 6mM DTT, 3mM Na ascorbate and 3mM POCV. The pH was adjusted to 2.0.
# [2] = target: T2, isopenicillin N synthetase (cyclase) (Streptomyces clavuligerus, UniProt P10621); experiment: Cyclization of peptide substrates by S. clavuligerus cyclase, penicillin formed measured by bioassay against M. luteus; assay type: biochemical; settings: for kinetics of cyclization with the cyclase (Fig 1): formation of penicillin G from PCV, synthesis of isopenicillin N from ACV
# T2 construct: The broken cell suspension was ultra-centrifuged at 100,000 x g; endogenous in cells; host or cells: Streptomyces clavuligerus ATCC 27064
# T2 sequence (P10621 1-329): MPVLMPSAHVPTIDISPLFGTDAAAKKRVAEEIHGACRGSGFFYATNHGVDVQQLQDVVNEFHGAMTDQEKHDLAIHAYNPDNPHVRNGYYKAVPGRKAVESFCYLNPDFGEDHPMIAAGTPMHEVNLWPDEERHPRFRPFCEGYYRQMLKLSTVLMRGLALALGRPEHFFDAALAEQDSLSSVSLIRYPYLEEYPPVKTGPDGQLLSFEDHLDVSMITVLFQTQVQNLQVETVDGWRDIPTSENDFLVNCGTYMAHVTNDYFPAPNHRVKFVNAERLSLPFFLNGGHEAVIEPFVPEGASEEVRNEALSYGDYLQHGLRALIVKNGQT
# Protocol: S. clavuligerus ATTC 27064 was maintained and grown as described by O'Sullivan et al. in Biochem. J. 179:47-52, 1979. 250 ml of culture were harvested by centrifugation at 10,000 x g for 5 minutes, washed four times by resuspension in sterile saline solution and centrifuged as before. The precipitated cells, resuspended in 25 ml of […] Tris-HCl buffer pH 7.5 containing 0.1mM DTT (TD buffer), were sonicated as described in J. Antibiot. 35:483-490, 1982, using a Branson Sonifier Cell Disruptor (B-12). The broken cell suspension was ultra-centrifuged at 100,000 x g (Beckman L5-65B) for 90 minutes, treated with 0.2 (w/v) protamine sulphate and the clear extract precipitated with ammonium sulphate (30-80% saturation, for example 50-80% saturation). The resulting precipitate was resuspended in 3 ml of TD buffer and applied to a Sephadex (Trade Mark) G-25, PD-10 column (Pharmacia). Aliquots of 1 ml were collected and assayed for isopenicillin N synthetase (cyclase) activity. Fractions 4 and 5, containing maximal activity, were mixed and employed for the reaction. The cyclase extracts were stored frozen at -20 C. Protein was measured by the method of Lowry et al described in J. Biol. Chem. 193:265-273, 1951.
# Cyclization activity of the cyclase on ACV or PCV was assayed by a slightly modified version of the method described by Jensen et al. in J.Antibiot, 35:483-490, 1982 and in Antibiotics and Other Secondary Metabolites pages 141-164, Academic Press. The reaction mixture contained 30mM Tris-HCl buffer pH 7.5; 0.5 mM FeSO₄; 1mM bis-ACV or 3mM bis-PCV; 4mM DTT; 3 mM Na ascorbate and enzyme (10mg of protein) in a final reaction volume of 0.5 ml. The reaction mixture was incubated at 25°C for 90 min and stopped by adding 0.5ml of methanol.
# The formation of isopenicillin N and benzylpenicillin was measured by bioassay against M. luteus ATCC 9341 following the hole plate method described in Biochem. J. 103:877-890, 1967. Penicillin N and benzylpenicillin were used as standards. One unit of antibiotic (penicillin N or benzylpenicillin) gave a zone of inhibition equivalent to 1µg or 1.58 µg of penicillin N or benzylpenicillin respectively with M. luteus luteus ATCC 9341 as test organism.
# [3] = target: T3, isopenicillin N synthetase (cyclase) (Hapsidospora chrysogena, UniProt P05189); experiment: Cyclization of peptide substrates by A. chrysogenum cyclase, penicillin formed measured by bioassay; assay type: biochemical, Acremonium chrysogenum
# T3 construct: The mycelium was disrupted by sonification for 2 minutes; endogenous in cells
# T3 sequence (P05189 1-338): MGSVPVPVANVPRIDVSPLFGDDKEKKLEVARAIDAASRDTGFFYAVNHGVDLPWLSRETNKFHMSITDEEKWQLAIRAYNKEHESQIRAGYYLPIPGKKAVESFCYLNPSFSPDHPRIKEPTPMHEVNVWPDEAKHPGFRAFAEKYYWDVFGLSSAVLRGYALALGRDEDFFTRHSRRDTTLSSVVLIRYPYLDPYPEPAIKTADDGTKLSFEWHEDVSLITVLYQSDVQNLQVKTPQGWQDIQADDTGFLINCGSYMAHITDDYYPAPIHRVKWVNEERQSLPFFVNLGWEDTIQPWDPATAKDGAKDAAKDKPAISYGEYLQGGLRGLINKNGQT
# Protocol: Example 2 was repeated but using isopenicillin N synthetase extracted from a high producing strain of Acremonium chrysogenum (A. chrysogenum C-10 available from A. L. Demain).
# Cells containing high isopenicillin N synthetase activity were obtained in a two stage process as described in J. Antibiot. 144:869-876. A. chrysogenum cultures were developed in seed medium for 4 days and these used to innoculate 60ml of chemically defined cephalosporin production medium, (CP medium). Cell free extracts were obtained as described by Ramos et al in Antimicrob. Agents Chemother. 27(3):380-387. Mycelium of A. chrysogenum was collected at 64 hours of cultivation in CP medium and resuspended in 30mM Tris-HCl buffer pH 8.0 containing 0.1mM dithiothreitol (DTT). The mycelium was disrupted by sonification for 2 minutes. The extract was centrifuged at 100,000 x g for 1 hour at 4°C in a Beckman L8-70 ultracentrifuge and the resulting crude extract was stored at -20 C. Isopenicillin N synthetase was purified as previously described in Antimicrob. Agents Chemother. 27(3):380-387.
# Bioassay of the isopenicillin N and benzylpenicillin formed by the A. chrysogenum cyclase was performed in a similar way to the method described in Example 3 for assaying the penicillins produced by the cyclase extracted from P. chrysogenum.
# Example 4 was repeated but using POCV as substrate in place of PCV. POCV was prepared as described in Example 5. The cyclase was extracted from A. chrysogenum AS-C-80 and incubated in the reaction mixture described in Example 5, with the exception that the pH of the Tris buffer was 7.8.
# [4] = tested on: isopenicillin N synthetase, also called cyclase; settings: added to the reaction mixture; cited from earlier work
compound,measurement,setting,value
"CC(C)[C@@H](NC(=O)[C@H](CS)NC(=O)CCC[C@H](N)C(=O)O)C(=O)O [ACV, δ-(L-α-aminoadipyl)-L-cysteinyl-D-valine, reference compound]",inactivation of the reaction product by penicillin acylase,[1],did not occur
same,inactivation of the reaction product by penicillinase,[1],completely inactivated
same,kinetics of cyclization with the cyclase (Fig 1),[2],much faster
same,sensitivity of the cyclization product to penicillin acylase,[2]; isopenicillin N obtained from the cyclization of ACV,not sensitive to penicillin acylase
same,Isopenicillin N¹ or Benzylpenicillin² (U/ml),"[2]; substrate ACV (1mM bis-ACV), control reaction mixture, 25°C, 90 min, isopenicillin N measured using penicillin N as standard",40 U/ml
same,Isopenicillin N¹ or Benzylpenicillin² (U/ml),"[2]; substrate ACV, + Penicillin acylase (2 I.U, 10 min.), isopenicillin N measured using penicillin N as standard",38 U/ml
same,Isopenicillin N¹ or Benzylpenicillin² (U/ml),"[2]; substrate ACV, + β-lactamase, isopenicillin N measured using penicillin N as standard",0 U/ml
same,inactivation of the reaction product by penicillinase,[3],completely inactivated
"CC(C)[C@@H](NC(=O)[C@H](CS)NC(=O)Cc1ccccc1)C(=O)O [PCV, phenylacetyl-L-cysteinyl-D-valine] (PhAc-Cys-[dV]-OH)",inactivation of the reaction product by penicillin acylase,[1],inactivated by penicillin acylase
same,inactivation of the reaction product by penicillinase,[1],completely inactivated
same,sensitivity of the cyclization product to β-lactamase I from Bacillus careus,[2],sensitive to β-lactamase I
same,Benzylpenicillin (U/ml),[2]; complete reaction mixture with PCV as substrate,0.15 U/ml
same,kinetics of cyclization with the cyclase (Fig 1),[2],slow time dependent course
same,activity of the cyclization product against M. luteus ATTC 9341,[2]; hole plate bioassay,active against M. luteus ATTC 9341
same,loss of antibacterial activity of the cyclization product,[2]; incubated with 2 I.U. of penicillin acylase at 30°C for 10 minutes,over 90 per cent
same,Isopenicillin N¹ or Benzylpenicillin² (U/ml),"[2]; substrate PCV (3mM bis-PCV), control reaction mixture, 25°C, 90 min, benzylpenicillin as standard",0.15 U/ml
same,Isopenicillin N¹ or Benzylpenicillin² (U/ml),"[2]; substrate PCV, + Penicillin acylase (2 I.U, 10 min.), benzylpenicillin as standard",0.01 U/ml
same,Isopenicillin N¹ or Benzylpenicillin² (U/ml),"[2]; substrate PCV, + β-lactamase, benzylpenicillin as standard",0.00 U/ml
same,inactivation of the reaction product by penicillin acylase,[3],inactivated by penicillin acylase
same,inactivation of the reaction product by penicillinase,[3],completely inactivated
"CC(C)[C@@H](NC(=O)[C@H](CS)NC(=O)COc1ccccc1)C(=O)O [POCV, phenoxyacetyl-L-cysteinyl-D-valine]",Penicillin V (U/ml),"[1]; complete reaction mixture, 3mM POCV, Tris-HCl buffer pH 8.1, 25°C, 30 minutes, P. chrysogenum AS-P-78 cell free extract",0.18 U/ml
same,Penicillin V (U/ml),"[3]; complete reaction mixture, 3mM POCV, Tris buffer pH 7.8, cyclase from A. chrysogenum AS-C-80",0.25 U/ml
"N[C@@H](CCC(=O)N[C@@H](CS)C(=O)NCC(=O)O)C(=O)O [glutathione, γ-glutamyl-cysteinyl-glycine]",effect on ACV cyclization,[4],inhibited
